Assay results: PubChem BioAssay AID1963872 (Molecular Pharmacology Branch, DTP, NCI, 2024)

Test system: KRAS patient-derived spheroids with HUVEC/MSC, viability
Test: Anticancer human tumor 519858-162-T-J1-PDC patient-derived colon adenocarcinoma cell line growth inhibition [KRAS2]
Conditions: for viability, T/C: stronger effect = lower value
In short: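 KRAS-mutant tumor cells were grown as spheroids with HUVEC endothelial cells and human MSCs as stroma. Targeted agents were tested alone and with KRAS pathway inhibitors. Doses started at or near clinical Cmax, or 10 microM, descending half-log.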

[1] = curve of first compound, second compound 0.1 µM
[2] = curve of first compound, second compound 0.316 µM
[3] = curve of first compound, second compound 1 µM
[4] = curve of first compound, second compound 3.16 µM
[5] = curve of first compound, second compound 10 µM
[6] = second compound 0.1 µM, first compound 0.0316 µM
[7] = second compound 0.1 µM, first compound 0.1 µM
[8] = second compound 0.1 µM, first compound 0.316 µM
[9] = second compound 0.1 µM, first compound 1 µM
[10] = second compound 0.1 µM, first compound 3.16 µM
[11] = second compound 0.1 µM, first compound 10 µM
[12] = second compound 0.316 µM, first compound 0.0316 µM
[13] = second compound 0.316 µM, first compound 0.1 µM
[14] = second compound 0.316 µM, first compound 0.316 µM
[15] = second compound 0.316 µM, first compound 1 µM
[16] = second compound 0.316 µM, first compound 3.16 µM
[17] = second compound 0.316 µM, first compound 10 µM
[18] = second compound 1 µM, first compound 0.0316 µM
[19] = second compound 1 µM, first compound 0.1 µM
[20] = second compound 1 µM, first compound 0.316 µM
[21] = second compound 1 µM, first compound 1 µM
[22] = second compound 1 µM, first compound 3.16 µM
[23] = second compound 1 µM, first compound 10 µM
[24] = second compound 3.16 µM, first compound 0.0316 µM
[25] = second compound 3.16 µM, first compound 0.1 µM
[26] = second compound 3.16 µM, first compound 0.316 µM
[27] = second compound 3.16 µM, first compound 1 µM
[28] = second compound 3.16 µM, first compound 3.16 µM
[29] = second compound 3.16 µM, first compound 10 µM
[30] = second compound 10 µM, first compound 0.0316 µM
[31] = second compound 10 µM, first compound 0.1 µM
[32] = second compound 10 µM, first compound 0.316 µM
[33] = second compound 10 µM, first compound 1 µM
[34] = second compound 10 µM, first compound 3.16 µM
[35] = second compound 10 µM, first compound 10 µM
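Note: compound exposure lasted seven days before readout.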
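Throughout, for viability, T/C: 100% = DMSO vehicle control viability.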

For `COc1cc(Nc2ncc3c(n2)-c2ccc(Cl)cc2C(c2c(F)cccc2OC)=NC3)ccc1C(=O)O`, the viability, T/C (compound 0.1 µM) was 74.8% [middle of 5 runs] and the IC50 (curve of compound) was over 10 µM.
With `COc1cc(Nc2ncc3c(n2)-c2ccc(Cl)cc2C(c2c(F)cccc2OC)=NC3)ccc1C(=O)O` + COc1cc2nc(C)nc(NC(C)c3cc(N)cc(C(F)(F)F)c3)c2cc1OC1CCOC1 the IC50 [1] was over 10 µM, the IC50 [2] was over 10 µM and the IC50 [3] was over 10 µM. It also gave an IC50 [4] of over 10 µM, an IC50 [5] of over 10 µM and a viability, T/C [6] of 76.3%. For the same compound, the viability, T/C [7] was 72.5%, the viability, T/C [8] was 68% and the viability, T/C [9] was 75.6%. It also gave a viability, T/C [10] of 88.5%, a viability, T/C [11] of 87.6% and a viability, T/C [12] of 79.3%. It also gave a viability, T/C [13] of 78.1%, a viability, T/C [14] of 62.2% and a viability, T/C [15] of 82.8%. It also gave a viability, T/C [16] of 78.4%, a viability, T/C [17] of 115% and a viability, T/C [18] of 85.9%. For the same compound, the viability, T/C [19] was 66.4%, the viability, T/C [20] was 76.6% and the viability, T/C [21] was 74.8%. The viability, T/C [22] was 68.6%, the viability, T/C [23] was 72.3% and the viability, T/C [24] was 78.9%. For the same compound, the viability, T/C [25] was 72%, the viability, T/C [26] was 60.6% and the viability, T/C [27] was 80.9%. For the same compound, the viability, T/C [28] was 60.6%, the viability, T/C [29] was 76.4% and the viability, T/C [30] was 65.3%. For the same compound, the viability, T/C [31] was 74.2%, the viability, T/C [32] was 54.8% and the viability, T/C [33] was 63.5%. It also gave a viability, T/C [34] of 60.6% and a viability, T/C [35] of 75.3%.
`CC1(C)CCC(CN2CCN(c3ccc(C(=O)NS(=O)(=O)c4ccc(NCC5CCOCC5)c([N+](=O)[O-])c4)c(Oc4cnc5[nH]ccc5c4)c3)CC2)=C(c2ccc(Cl)cc2)C1` + COc1cc2nc(C)nc(NC(C)c3cc(N)cc(C(F)(F)F)c3)c2cc1OC1CCOC1 was tested, and the IC50 [1] was over 10 µM, the IC50 [2] was over 10 µM and the IC50 [3] was 5.24 µM. It also gave an IC50 [4] of 6.2 µM, an IC50 [5] of 2.66 µM and a viability, T/C [6] of 105%. The viability, T/C [7] was 85.7%, the viability, T/C [8] was 74.5% and the viability, T/C [9] was 82.5%. It also gave a viability, T/C [10] of 73.6%, a viability, T/C [11] of 101% and a viability, T/C [12] of 116%. For the same compound, the viability, T/C [13] was 92.4%, the viability, T/C [14] was 92.3% and the viability, T/C [15] was 78.9%. It also gave a viability, T/C [16] of 76.5%, a viability, T/C [17] of 52.5% and a viability, T/C [18] of 73.7%. It also gave a viability, T/C [19] of 79.9%, a viability, T/C [20] of 98.9% and a viability, T/C [21] of 80.5%. It also gave a viability, T/C [22] of 66.8%, a viability, T/C [23] of 28.6% and a viability, T/C [24] of 63.5%. It also gave a viability, T/C [25] of 63.3%, a viability, T/C [26] of 82% and a viability, T/C [27] of 69.5%. It also gave a viability, T/C [28] of 73%, a viability, T/C [29] of 35.8% and a viability, T/C [30] of 82.1%. It also gave a viability, T/C [31] of 60.9%, a viability, T/C [32] of 92.9% and a viability, T/C [33] of 78.6%. The viability, T/C [34] was 45% and the viability, T/C [35] was 37.8%.
`CCNC(=O)CC1N=C(c2ccc(Cl)cc2)c2cc(OC)ccc2-n2c(C)nnc21` (configuration not stated) + COc1cc2nc(C)nc(NC(C)c3cc(N)cc(C(F)(F)F)c3)c2cc1OC1CCOC1 was tested, and the IC50 [1] was 1.41 µM, the IC50 [2] was 0.656 µM and the IC50 [3] was 0.531 µM. The IC50 [4] was 0.367 µM, the IC50 [5] was 0.106 µM and the viability, T/C [6] was 82.4%. It also gave a viability, T/C [7] of 90.9%, a viability, T/C [8] of 86.2% and a viability, T/C [9] of 67.9%. It also gave a viability, T/C [10] of 7.95%, a viability, T/C [11] of 5.72% and a viability, T/C [12] of 78.8%. It also gave a viability, T/C [13] of 125%, a viability, T/C [14] of 78.3% and a viability, T/C [15] of 33.1%. For the same compound, the viability, T/C [16] was 8.12%, the viability, T/C [17] was 9.79% and the viability, T/C [18] was 71.1%. For the same compound, the viability, T/C [19] was 58.3%, the viability, T/C [20] was 66.2% and the viability, T/C [21] was 31.5%. The viability, T/C [22] was 5.67%, the viability, T/C [23] was 7.44% and the viability, T/C [24] was 70%. It also gave a viability, T/C [25] of 90.5%, a viability, T/C [26] of 55.4% and a viability, T/C [27] of 13.8%. The viability, T/C [28] was 6.83%, the viability, T/C [29] was 9.55% and the viability, T/C [30] was 58%. The viability, T/C [31] was 48%, the viability, T/C [32] was 33% and the viability, T/C [33] was 7.95%. For the same compound, the viability, T/C [34] was 6.57% and the viability, T/C [35] was 5.25%.
Work on `CC1OCC2(CCN(c3cnc(Sc4ccnc(N)c4Cl)c(N)n3)CC2)C1N` (configuration not stated) + C=CC(=O)N1CCN(c2nc(OCC3CCCN3C)nc3c2CCN(c2cccc4cccc(C)c24)C3)CC1CC#N yielded an IC50 (curve of first compound, second compound 0.0316 µM) of over 10 µM, an IC50 [1] of 2.28 µM and an IC50 [2] of over 10 µM. The IC50 [3] was 5.7 µM, the IC50 [4] was under 0.0316 µM and the viability, T/C (second compound 0.0316 µM, first compound 0.0316 µM) was 90.8%. The viability, T/C (second compound 0.0316 µM, first compound 0.1 µM) was 84.2%, the viability, T/C (second compound 0.0316 µM, first compound 0.316 µM) was 96.5% and the viability, T/C (second compound 0.0316 µM, first compound 1 µM) was 85.4%. It also gave a viability, T/C (second compound 0.0316 µM, first compound 3.16 µM) of 64.9%, a viability, T/C (second compound 0.0316 µM, first compound 10 µM) of 53.9% and a viability, T/C [6] of 82.5%. For the same compound, the viability, T/C [7] was 75.8%, the viability, T/C [8] was 75.7% and the viability, T/C [9] was 55.9%. It also gave a viability, T/C [10] of 46.8%, a viability, T/C [11] of 48.1% and a viability, T/C [12] of 94%. The viability, T/C [13] was 69%, the viability, T/C [14] was 58% and the viability, T/C [15] was 52.8%. For the same compound, the viability, T/C [16] was 67.1%, the viability, T/C [17] was 62.1% and the viability, T/C [18] was 87.3%. The viability, T/C [19] was 81.1%, the viability, T/C [20] was 62.2% and the viability, T/C [21] was 82.4%. For the same compound, the viability, T/C [22] was 54.9%, the viability, T/C [23] was 41.9% and the viability, T/C [24] was 33.9%. The viability, T/C [25] was 42.9%, the viability, T/C [26] was 42.3% and the viability, T/C [27] was 52.7%. It also gave a viability, T/C [28] of 25.5% and a viability, T/C [29] of 30.1%.
